The text below walks through data of patent US20180028507A1, “3-CARBAMOYLPHENYL-4-CARBOXAMIDE AND ISOPHTALAMIDE DERIVATIVES AS INHIBITORS OF THE WNT SIGNALLING PATHWAY” (Bayer Pharma Aktiengesellschaft, priority 2015, published 2018).

For assay [1], the system named is constitutive active colorectal cancer cell (CRC) Wnt pathway. Put plainly: HCT116 TOPFlash cellular reporter assay (Super TopFlash vector, luciferase). In kind it is cell-based. The conditions noted are these: Homo sapiens, HCT-116; HCT116 Super TopFlash reporter cells, 36 hours incubation, dilution series 50 μM to 15 nM, luciferase expression. The protocol: In order to discover and characterize small molecules which inhibit the constitutive active colorectal cancer cell (CRC) Wnt pathway, a cellular reporter assay was employed. The corresponding assay cell was generated by transfection of the colorectal cancer cell line HCT116 (ATCC, #CCL-247) with the Super TopFlash vector (Morin, Science 275, 1997, 1787-1790; Molenaar et al., Cell 86 (3), 1996, 391-399). The HCT116 cell line is cultivated at 37° C. and 5% CO2 in DMEM/F-12 (Life Technologies, #11320-074), supplemented with 2 mM glutamine, 20 mM HEPES, 1.4 mM pyruvate, 0.15% Na-bicarbonate and 10% foetal bovine serum (GIBCO, #10270), this cancer cell line is pathophysiological relevant since it carries a deletion of position S45 in the β-catenin gene, leading to constitutive active Wnt signaling. Stable transfectants were generated by cotransfection with pcDNA3 and selection of stable transfected cells with 1 mg/ml G418.
(§1) In preparation of the assay, the two cell lines were plated 24 hours before at 10000 cells per well of a 384 micro titre plate (MTP) in 30 μL growth medium. Selective inhibitory activity for small molecules on the mutated Wnt pathway was determined after parallel incubation of both (TOP and FOP) HCT116 reporter cell lines with a compound dilution series from 50 μM to 15 nM in steps of 3.16-fold dilutions in CAFTY buffer (130 mM NaCl, 5 mM KCl, 20 mM HEPES, 1 mM MgCl2, 5 mM NaHCO3, pH 7.4) containing 2 mM Ca^2+ and 0.01% BSA. The compounds were thereby serially prediluted in 100% DMSO and thereafter in addition 50 fold into the CAFTY compound dilution buffer (described above). From this dilution 10 μL were added to the cells in 30 μL growth medium and incubated for 36 hours at 37° C. and 5% CO2.

Assay [2] relates to HCT116 cells cotransfected with the FOP control vector (non-functional TCF elements). In words: HCT116 FOPFlash control reporter assay (FOP control vector, luciferase). In kind it is cell-based. The note with it: Homo sapiens, HCT-116, 36 hours incubation, dilution series 50 μM to 15 nM, luciferase expression. The protocol:
In a parallel approach, HCT116 cells were cotransfected with the FOP control vector and pcDNA3. The FOP vector is identical to the TOP construct, but it contains instead of functional TCF elements a randomized, non-functional sequence. For this transfection a stable transfected cell line was generated as well.
as §1
On the technique in general: A reporter such as luciferase makes a cellular process visible.

For `Nc1ccc(CNC(=O)c2cc(C(=O)Nc3ccc(-c4ccccc4F)nc3)ccc2OC(F)(F)F)cn1` [Example 51, N^3-[(6-aminopyridin-3-yl)methyl]-N^1-[6-(2-fluorophenyl)pyridin-3-yl]-4-(trifluoromethoxy) isophthalamide], the IC50 – broadly, the concentration that inhibits the measured activity by half – was determined as 1.8 µM in assay [1] and 14 µM in assay [2].

As for `COc1ccc(C(=O)Nc2ccc(-c3ccccc3)cc2)cc1C(=O)Nc1cccnc1` [Example 55, N^1-(biphenyl-4-yl)-4-methoxy-N^3-(pyridin-3-yl)isophthalamide], the IC50 came to 4.9 µM in assay [1] and 23 µM in assay [2].

Take `COc1ccc(C(=O)Nc2ccc(-c3ccccc3F)nc2)cc1C(=O)NCc1ccccn1` [Example 53, N^1-[6-(2-fluorophenyl)pyridin-3-yl]-4-methoxy-N^3-(pyridin-2-ylmethyl)isophthalamide]: the IC50 was 10 µM in assay [1] and ≥ 50 µM in assay [2].

As to `CC(C)(C)OC(=O)Nc1ccc(CNC(=O)c2cc(C(=O)Nc3ccc(-c4ccccc4F)nc3)ccc2OC(F)(F)F)cn1` [Example 48, tert-butyl [5-({[5-{[6-(2-fluorophenyl)pyridin-3-yl]carbamoyl}-2-(trifluoromethoxy)benzoyl]amino}methyl)pyridin-2-yl]carbamate], the concentration for half-maximal inhibition (IC50) in assay [1] was found to be 2.05 µM; in assay [2] it was 37 µM.

For the molecule `CCOCCCNC(=O)c1cc(NC(=O)c2ccc(-c3ccccc3)cc2)ccc1OC` [Example 5, N-{3-[(3-ethoxypropyl)carbamoyl]-4-methoxyphenyl}biphenyl-4-carboxamide], the IC50 in assay [1] stood at 0.608 µM; in assay [2] it was 31 µM.

As to `Cc1cc(NC(=O)c2cc(C(=O)Nc3ccc(-c4ccccc4F)nc3)ccc2OC(F)(F)F)ccn1` [Example 59, N^1-[6-(2-fluorophenyl)pyridin-3-yl]-N^3-(2-methylpyridin-4-yl)-4-(trifluoromethoxy) isophthalamide], the figures for the concentration for half-maximal inhibition (IC50) in assay [1] and in assay [2] were 1.7 µM and 5.5 µM, respectively.

For `COc1ccc(C(=O)Nc2ccc(-c3ccccc3)cc2)cc1C(=O)Nc1cccnc1C` [Example 62, N^1-(biphenyl-4-yl)-4-methoxy-N^3-(2-methylpyridin-3-yl)isophthalamide], the IC50 was 45 µM in assay [1] and ≥ 50 µM in assay [2].

For the molecule `Cc1ncccc1NC(=O)c1cc(C(=O)Nc2ccc(-c3ccccc3F)nc2)ccc1OC(F)(F)F` [Example 58, N^1-[6-(2-fluorophenyl)pyridin-3-yl]-N^3-(2-methylpyridin-3-yl)-4-(trifluoromethoxy) isophthalamide], the IC50 came to 1.9 µM in assay [1] and 6.6 µM in assay [2].

In the case of `COc1ccc(C(=O)Nc2ccc(-c3ccccc3F)nc2)cc1C(=O)Nc1ccncc1F` [Example 27, N^1-[6-(2-fluorophenyl)pyridin-3-yl]-N^3-(3-fluoropyridin-4-yl)-4-methoxyisophthalamide], the results for the IC50 in assay [1] and in assay [2] were 0.645 µM and ≥ 50 µM, respectively.

Take `COc1ccc(NC(=O)c2ccc(-c3ccccc3)cc2)cc1C(=O)NCc1ccccn1` [Example 32, N-{4-methoxy-3-[(pyridin-2-ylmethyl)carbamoyl]phenyl} biphenyl-4-carboxamide]: the IC50 was 1.33 µM in assay [1] and ≥ 50 µM in assay [2].

For `COc1ccc(C(=O)Nc2ccc(-c3ccccc3)cc2)cc1C(=O)Nc1ccncc1` [Example 11, N^1-(biphenyl-4-yl)-4-methoxy-N^3-(pyridin-4-yl)isophthalamide], the IC50 in assay [1] worked out at 0.415 µM; in assay [2], 11.5 µM.

For `COc1ccc(C(=O)Nc2ccc(-c3ccccc3F)nc2)cc1C(=O)Nc1ccnc(C)c1` [Example 26, N^1-[6-(2-fluorophenyl)pyridin-3-yl]-4-methoxy-N^3-(2-methylpyridin-4-yl)isophthalamide], the values for the IC50 in assay [1] and in assay [2] were 0.36 µM and ≥ 50 µM, respectively.

For `COc1ccc(NC(=O)c2ccc(-c3ccccc3)cc2)cc1C(=O)NCc1cccc(C)n1` [Example 34, N-(4-methoxy-3-{[(6-methylpyridin-2-yl)methyl]carbamoyl}phenyl) biphenyl-4-carboxamide], the IC50 in assay [1] is 3.65 µM; in assay [2] it was ≥ 50 µM.

In the case of `COc1ccc(C(=O)Nc2ccc(-c3ccccc3)cc2)cc1C(=O)NCc1cccnc1` [Example 16, N^1-(biphenyl-4-yl)-4-methoxy-N^3-(pyridin-3-ylmethyl)isophthalamide], the half-inhibitory concentration (IC50) in assay [1] is 0.64 µM; in assay [2], ≥ 50 µM.

As to `COc1ccc(C(=O)Nc2ccc(-c3ccccc3)cc2)cc1C(=O)Nc1ccncc1F` [Example 14, N^1-(biphenyl-4-yl)-N^3-(3-fluoropyridin-4-yl)-4-methoxyisophthalamide], the IC50 in assay [1] is 0.144 µM; in assay [2] it was ≥ 50 µM.

`COc1ccc(NC(=O)c2ccc(-c3ccccc3)cc2)cc1C(=O)NCc1cccnc1` [Example 37, N-{4-methoxy-3-[(pyridin-3-ylmethyl)carbamoyl]phenyl} biphenyl-4-carboxamide]: the figures for the IC50 in assay [1] and in assay [2] were 1.8 µM and 25 µM, respectively.

Regarding `Cc1ncccc1NC(=O)c1cc(C(=O)Nc2ccc(-c3ccccc3)cc2)ccc1OC(F)(F)F` [Example 40, N^1-(biphenyl-4-yl)-N^3-(2-methylpyridin-3-yl)-4-(trifluoromethoxy) isophthalamide], the IC50 is 2.25 µM in assay [1] and ≥ 50 µM in assay [2].

For `COc1ccc(C(=O)Nc2ccc(-c3ccccc3F)nc2)cc1C(=O)Nc1cccnc1C` [Example 25, N^1-[6-(2-fluorophenyl)pyridin-3-yl]-4-methoxy-N^3-(2-methylpyridin-3-yl)isophthalamide], the figures for the IC50 in assay [1] and in assay [2] were 0.84 µM and ≥ 50 µM, respectively.

With `COc1ccc(C(=O)Nc2ccc(-c3ccccc3F)nc2)cc1C(=O)NCc1cccnc1` [Example 41, N^1-[6-(2-fluorophenyl)pyridin-3-yl]-4-methoxy-N^3-(pyridin-3-ylmethyl)isophthalamide], the values for the IC50 in assay [1] and in assay [2] were 1.6 µM and ≥ 50 µM, respectively.

As to `COc1cc(NC(=O)c2cc(C(=O)Nc3ccc(-c4ccccc4F)nc3)ccc2OC)ccn1` [Example 44, N^1-[6-(2-fluorophenyl)pyridin-3-yl]-4-methoxy-N^3-(2-methoxypyridin-4-yl)isophthalamide], the half-maximal inhibitory concentration (IC50) in assay [1] is 2.82 µM; in assay [2], ≥ 50 µM.

With `COc1ccc(NC(=O)c2ccc(-c3ccccc3)cc2)cc1C(=O)NCc1ccccc1` [Example 33, N-[3-(benzylcarbamoyl)-4-methoxyphenyl]biphenyl-4-carboxamide], the IC50 is 3.35 µM in assay [1] and ≥ 50 µM in assay [2].

For the molecule `O=C(Nc1ccc(-c2cccnc2)cn1)c1ccc(OC(F)(F)F)c(C(=O)NCc2cccnc2)c1` [Example 30, N^1-(3,3′-bipyridin-6-yl)-N^3-(pyridin-3-ylmethyl)-4-(trifluoromethoxy)isophthalamide], the half-maximal inhibitory concentration (IC50) in assay [1] was 0.42 µM; in assay [2], 31.5 µM.

Regarding `COc1ccc(NC(=O)c2ccc(-c3ccccc3)cc2)cc1C(=O)NCCCOC(C)C` [Example 6, N-{3-[(3-isopropoxypropyl)carbamoyl]-4-methoxyphenyl}biphenyl-4-carboxamide], the IC50 was determined as 0.383 µM in assay [1] and 14.4 µM in assay [2].

With `Nc1cccc(CNC(=O)c2cc(C(=O)Nc3ccc(-c4ccccc4F)nc3)ccc2OC(F)(F)F)n1` [Example 49, N^3-[(6-aminopyridin-2-yl)methyl]-N^1-[6-(2-fluorophenyl)pyridin-3-yl]-4-(trifluoromethoxy) isophthalamide], the concentration for half-maximal inhibition (IC50) in assay [1] was 4.8 µM; in assay [2], ≥ 50 µM.

For `COc1ccc(C(=O)Nc2ccc(-c3ccccc3)cc2)cc1C(=O)NCc1ccc(N)nc1` [Example 61, N^3-[(6-aminopyridin-3-yl)methyl]-N^1-(bipheny-4-yl)-4-methoxyisophthalamide], the figures for the IC50 in assay [1] and in assay [2] were 34 µM and ≥ 50 µM, respectively.

Turning to `COc1ccc(C(=O)Nc2ccc(-c3ccccc3)cc2)cc1C(=O)NCc1ccc(NC(=O)OC(C)(C)C)nc1` [Example 54, tert-butyl [5-({[5-(biphenyl-4-ylcarbamoyl)-2-methoxybenzoyl]amino}methyl)pyridin-2-yl]carbamate], the IC50 in assay [1] turned out to be 3.2 µM; in assay [2], 16 µM.

Consider `O=C(Nc1ccc(-c2ccccc2F)nc1)c1ccc(OC(F)(F)F)c(C(=O)Nc2ccncc2)c1` [Example 17, N^1-[6-(2-fluorophenyl)pyridin-3-yl]-N^3-(pyridin-4-yl)-4-(trifluoromethoxy)isophthalamide], for which the IC50 in assay [1] is 0.675 µM; in assay [2], ≥ 50 µM.
